Measured values as given in US11242337B2, “Compounds useful for treating gastrointestinal tract disorders” (Ardelyx, Inc., priority 2017, dated 2022).

Tests used:
NHE3 [1] = target: T1, NHE3 (Homo sapiens, UniProt P48764); assay: Cell-based assay of NHE-3 activity (persistent inhibition), human; conditions: human Persistence, 60 min incubation then washout
T1 construct: expressed in transfected cells
T1 sequence (P48764 26-834): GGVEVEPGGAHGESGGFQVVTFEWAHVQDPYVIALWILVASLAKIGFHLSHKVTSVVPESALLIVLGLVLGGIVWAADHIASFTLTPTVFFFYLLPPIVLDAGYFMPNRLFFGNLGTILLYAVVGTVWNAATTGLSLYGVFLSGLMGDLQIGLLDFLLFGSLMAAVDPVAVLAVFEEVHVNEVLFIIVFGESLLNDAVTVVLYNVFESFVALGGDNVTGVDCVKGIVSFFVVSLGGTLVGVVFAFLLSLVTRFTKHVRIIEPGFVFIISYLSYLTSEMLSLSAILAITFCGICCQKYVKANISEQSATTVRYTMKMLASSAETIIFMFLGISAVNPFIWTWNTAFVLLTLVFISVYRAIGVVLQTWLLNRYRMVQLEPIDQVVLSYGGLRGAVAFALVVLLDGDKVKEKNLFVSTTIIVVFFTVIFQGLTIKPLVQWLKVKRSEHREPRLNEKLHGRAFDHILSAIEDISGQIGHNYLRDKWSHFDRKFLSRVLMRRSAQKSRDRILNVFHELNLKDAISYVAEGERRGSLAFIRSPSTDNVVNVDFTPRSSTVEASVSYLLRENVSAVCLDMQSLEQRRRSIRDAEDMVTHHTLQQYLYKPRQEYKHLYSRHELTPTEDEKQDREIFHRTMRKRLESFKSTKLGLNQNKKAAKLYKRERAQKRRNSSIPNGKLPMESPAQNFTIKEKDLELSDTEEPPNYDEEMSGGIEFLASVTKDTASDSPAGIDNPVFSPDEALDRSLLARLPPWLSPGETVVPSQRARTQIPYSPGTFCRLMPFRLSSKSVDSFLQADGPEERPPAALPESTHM
T1 sequence (Q99653 2-195 partner limits assumed): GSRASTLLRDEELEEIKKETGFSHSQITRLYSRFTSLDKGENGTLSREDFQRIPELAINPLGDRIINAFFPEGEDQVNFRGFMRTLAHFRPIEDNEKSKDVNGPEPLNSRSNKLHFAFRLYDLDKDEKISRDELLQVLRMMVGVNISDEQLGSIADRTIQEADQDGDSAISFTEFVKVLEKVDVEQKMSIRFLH
Method in brief: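 Persistent inhibition: compound (0-30 μM, 60 min, RT, NaCl-HEPES pH 7.4) removed before assay. Human NHE3/NHERF2 PS120 cells were then BCECF-loaded during NH4Cl pulse (30 min, 37 °C), acidified in Na+-free buffer, and Na+ added 10 min after washout; antiport measured as initial fluorescence-ratio change per minute.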

NHE3 [2] = target: T1, NHE3; assay: Cell-based assay of NHE-3 activity (pre-incubation inhibition), human; conditions: human Preincubation; for IC50 / pIC50: 0-30 μM test compound
Method in brief: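 Activity read as initial rate of BCECF fluorescence ratio change per minute (ex 439/505, em 538 nm) following NH4Cl prepulse acid loading. Compound (0–30 μM) present during 10 min Na+-free acidification at room temperature; cells were PS120 fibroblasts stably co-expressing human NHE3 and NHERF2.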

Compound | % inhibition (NHE3 [1]) | % inhibition (NHE3 [2]) | IC50 (NHE3 [1]) | IC50 (NHE3 [2]) | pIC50 (NHE3 [1]) | pIC50 (NHE3 [2])
Cc1cc(S(=O)(=O)N2CC[C@@H](COCCOCCNC(=O)NCCCCNC(=O)NCCOCCOC[C@@H]3CCN(S(=O)(=O)c4ccc(O[C@H]5c6cc(Cl)cc(C#N)c6C[C@@H]5N(C)C)c(C)c4)C3)C2)ccc1O[C@H]1c2cc(Cl)cc(C#N)c2C[C@@H]1N(C)C [Example 47] | C (>70%) | C (>70%) | – | – | – | –
Cc1cc(S(=O)(=O)N2CC[C@H](COc3ccnc(CNC(=O)NCCCCNC(=O)NCc4cc(OC[C@H]5CCN(S(=O)(=O)c6ccc(O[C@H]7c8cc(Cl)cc(Cl)c8C[C@@H]7N(C)C)c(C)c6)C5)ccn4)c3)C2)ccc1O[C@H]1c2cc(Cl)cc(Cl)c2C[C@@H]1N(C)C [Example 48, 3-[(4-[[(3S)-1-[(4-[[(1S,2S)-4,6-Dichloro-2-(dimethylamino)-2,3-dihydro-1H-inden-1-yl]oxy]-3-methylbenzene)sulfonyl]pyrrolidin-3-yl]methoxy]pyridin-2-yl)methyl]-1-[4-([[(4-[[(3S)-1-[(4-[[(1S,2S)-4,6-dichloro-2-(dimethylamino)-2,3-dihydro-1H-inden-1-yl]oxy]-3-methylbenzene)sulfonyl]pyrrolidin-3-yl]methoxy]pyridin-2-yl)methyl]carbamoyl]amino)butyl]urea] | C (>70%) | B (40-70%) | 100 to 1000 nM | 100 to 1000 nM | – | –
Cc1cc(S(=O)(=O)N2CC[C@H](COc3ccnc(CNC(=O)NCCCCNC(=O)NCc4cc(OC[C@H]5CCN(S(=O)(=O)c6ccc(O[C@H]7c8cc(Cl)cc(C#N)c8C[C@@H]7N(C)C)c(C)c6)C5)ccn4)c3)C2)ccc1O[C@H]1c2cc(Cl)cc(C#N)c2C[C@@H]1N(C)C [Example 50] | B (40-70%) | B (40-70%) | – | – | C (NHE3 pIC50 > 7) | C (NHE3 pIC50 > 7)
Cc1cc(S(=O)(=O)N2CC[C@@H](COc3ccnc(CNC(=O)NCCCCNC(=O)NCc4cc(OC[C@@H]5CCN(S(=O)(=O)c6ccc(O[C@H]7c8cc(Cl)cc(C#N)c8C[C@@H]7N(C)C)c(C)c6)C5)ccn4)c3)C2)ccc1O[C@H]1c2cc(Cl)cc(C#N)c2C[C@@H]1N(C)C [Example 51, 3-[(4-[[(3R)-1-[(4-[[(1S,2S)-6-Chloro-4-cyano-2-(dimethylamino)-2,3-dihydro-1H-inden-1-yl]oxy]-3-methylbenzene)sulfonyl]pyrrolidin-3-yl]methoxy]pyridin-2-yl)methyl]-1-[4-([[(4-[[(3R)-1-[(4-[[(1S,2S)-6-chloro-4-cyano-2-(dimethylamino)-2,3-dihydro-1H-inden-1-yl]oxy]-3-methylbenzene)sulfonyl]pyrrolidin-3-yl]methoxy]pyridin-2-yl)methyl]carbamoyl]amino)butyl]urea] | B (40-70%) | B (40-70%) | – | – | C (NHE3 pIC50 > 7) | C (NHE3 pIC50 > 7)
Cc1cc(S(=O)(=O)N[C@H]2CCN(CCOCCNC(=O)NCCCCNC(=O)NCCOCCN3CC[C@H](NS(=O)(=O)c4ccc(O[C@H]5c6cc(Cl)cc(C#N)c6C[C@@H]5N(C)C)c(C)c4)C3)C2)ccc1O[C@H]1c2cc(Cl)cc(C#N)c2C[C@@H]1N(C)C [Example 54, 3-(2-[2-[(3S)-3-[(4-[[(1S,2S)-6-Chloro-4-cyano-2-(dimethylamino)-2,3-dihydro-1H-inden-1-yl]oxy]-3-methylbenzene)sulfonamido]pyrrolidin-1-yl]ethoxy]ethyl)-1-(4-[[(2-[2-[(3S)-3-[(4-[[(1S,2S)-6-chloro-4-cyano-2-(dimethylamino)-2,3-dihydro-1H-inden-1-yl]oxy]-3-methylbenzene)sulfonamido]pyrrolidin-1-yl]ethoxy]ethyl)carbamoyl]amino]butyl)urea] | B (40-70%) | C (>70%) | < 100 nM | < 100 nM | – | –
N[C@@H]1CCCN([C@H]2Cc3c(Cl)cc(Cl)cc3[C@@H]2Oc2ccc(S(=O)(=O)NCCOCCOCCn3cc(CNC(=O)NCCCCNC(=O)NCc4cn(CCOCCOCCNS(=O)(=O)c5ccc(O[C@H]6c7cc(Cl)cc(Cl)c7C[C@@H]6N6CCC[C@@H](N)C6)cc5)nn4)nn3)cc2)C1 [Example 56, 1-([1-[2-(2-[2-[(4-[[(1S,2S)-2-[(3R)-3-Aminopiperidin-1-yl]-4,6-dichloro-2,3-dihydro-1H-inden-1-yl]oxy]benzene)sulfonamido]ethoxy]ethoxy)ethyl]-1H-1,2,3-triazol-4-yl]methyl)-3-(4-[[([1-[2-(2-[2-[(4-[[(1S,2S)-2-[(3R)-3-aminopiperidin-1-yl]-4,6-dichloro-2,3-dihydro-1H-inden-1-yl]oxy]benzene)sulfonamido]ethoxy]ethoxy)ethyl]-1H-1,2,3-triazol-4-yl]methyl)carbamoyl]amino]butyl)urea] | C (>70%) | C (>70%) | < 100 nM | < 100 nM | – | –
NC1CCCN(C2Cc3c(Cl)cc(Cl)cc3C2Oc2ccc(S(=O)(=O)NCCOCCOCCn3cc(CNC(=O)C(O)C(O)C(O)C(O)C(=O)NCc4cn(CCOCCOCCNS(=O)(=O)c5ccc(OC6c7cc(Cl)cc(Cl)c7CC6N6CCCC(N)C6)cc5)nn4)nn3)cc2)C1 [Example 57, (2R,3S,4R,5S)—N^1,N^6-Bis([1-[2-(2-[2-[(4-[[(1S,2S)-2-[(3R)-3-aminopiperidin-1-yl]-4,6-dichloro-2,3-dihydro-1H-inden-1-yl]oxy]benzene)sulfonamido]ethoxy]ethoxy)ethyl]-1H-1,2,3-triazol-4-yl]methyl)-2,3,4,5-tetrahydroxyhexanediamide] | – | – | – | – | C (NHE3 pIC50 > 7) | C (NHE3 pIC50 > 7)
N[C@@H]1CCCN([C@H]2Cc3c(Cl)cc(Cl)cc3[C@@H]2Oc2ccc(S(=O)(=O)NCCCCn3cc(CNC(=O)NCCCCNC(=O)NCc4cn(CCCCNS(=O)(=O)c5ccc(O[C@H]6c7cc(Cl)cc(Cl)c7C[C@@H]6N6CCC[C@@H](N)C6)cc5)nn4)nn3)cc2)C1 [Example 58, 3-[(1-[4-[(4-[[(1S,2S)-2-[(3R)-3-Aminopiperidin-1-yl]-4,6-dichloro-2,3-dihydro-1H-inden-1-yl]oxy]benzene)sulfonamido]butyl]-1H-1,2,3-triazol-4-yl)methyl]-1-[4-([[(1-[4-[(4-[[(1S,2S)-2-[(3R)-3-aminopiperidin-1-yl]-4,6-dichloro-2,3-dihydro-1H-inden-1-yl]oxy]benzene)sulfonamido]butyl]-1H-1,2,3-triazol-4-yl)methyl]carbamoyl]amino)butyl]urea] | C (>70%) | C (>70%) | < 100 nM | < 100 nM | – | –
N[C@@H]1CCCN([C@H]2Cc3c(Cl)cc(Cl)cc3[C@@H]2Oc2ccc(S(=O)(=O)NCCCCCCn3cc(CNC(=O)NCCCCNC(=O)NCc4cn(CCCCCCNS(=O)(=O)c5ccc(O[C@H]6c7cc(Cl)cc(Cl)c7C[C@@H]6N6CCC[C@@H](N)C6)cc5)nn4)nn3)cc2)C1 [Example 59, 3-[(1-[6-[(4-[[(1S,2S)-2-[(3R)-3-Aminopiperidin-1-yl]-4,6-dichloro-2,3-dihydro-1H-inden-1-yl]oxy]benzene)sulfonamido]-hexyl]-1H-1,2,3-triazol-4-yl)methyl]-1-[4-([[(1-[6-[(4-[[(1S,2S)-2-[(3R)-3-aminopiperidin-1-yl]-4,6-dichloro-2,3-dihydro-1H-inden-1-yl]oxy]benzene)sulfonamido]hexyl]-1H-1,2,3-triazol-4-yl)methyl]carbamoyl]amino)butyl]urea] | C (>70%) | C (>70%) | – | – | – | –
